Data on 19 molecules can be found in patent US10077261B2, “Imidazolin-5-one derivative useful as FASN inhibitors for the treatment of cancer” (Janssen Pharmaceutica NV, priority 2012, dated 2018).

The structures appear in SMILES notation. Read-outs that look alike come from different tables or passages of the source.

The term inhibition denotes the change of the read-out against control, counted positive when it falls.

The target of this assay is T1, hFASN enzyme (full length) (Homo sapiens, UniProt P49327).
T1 construct: 10 μL hFASN enzyme (full length, 300 ng, purified in house); made in house
T1 sequence (P49327 whole entry): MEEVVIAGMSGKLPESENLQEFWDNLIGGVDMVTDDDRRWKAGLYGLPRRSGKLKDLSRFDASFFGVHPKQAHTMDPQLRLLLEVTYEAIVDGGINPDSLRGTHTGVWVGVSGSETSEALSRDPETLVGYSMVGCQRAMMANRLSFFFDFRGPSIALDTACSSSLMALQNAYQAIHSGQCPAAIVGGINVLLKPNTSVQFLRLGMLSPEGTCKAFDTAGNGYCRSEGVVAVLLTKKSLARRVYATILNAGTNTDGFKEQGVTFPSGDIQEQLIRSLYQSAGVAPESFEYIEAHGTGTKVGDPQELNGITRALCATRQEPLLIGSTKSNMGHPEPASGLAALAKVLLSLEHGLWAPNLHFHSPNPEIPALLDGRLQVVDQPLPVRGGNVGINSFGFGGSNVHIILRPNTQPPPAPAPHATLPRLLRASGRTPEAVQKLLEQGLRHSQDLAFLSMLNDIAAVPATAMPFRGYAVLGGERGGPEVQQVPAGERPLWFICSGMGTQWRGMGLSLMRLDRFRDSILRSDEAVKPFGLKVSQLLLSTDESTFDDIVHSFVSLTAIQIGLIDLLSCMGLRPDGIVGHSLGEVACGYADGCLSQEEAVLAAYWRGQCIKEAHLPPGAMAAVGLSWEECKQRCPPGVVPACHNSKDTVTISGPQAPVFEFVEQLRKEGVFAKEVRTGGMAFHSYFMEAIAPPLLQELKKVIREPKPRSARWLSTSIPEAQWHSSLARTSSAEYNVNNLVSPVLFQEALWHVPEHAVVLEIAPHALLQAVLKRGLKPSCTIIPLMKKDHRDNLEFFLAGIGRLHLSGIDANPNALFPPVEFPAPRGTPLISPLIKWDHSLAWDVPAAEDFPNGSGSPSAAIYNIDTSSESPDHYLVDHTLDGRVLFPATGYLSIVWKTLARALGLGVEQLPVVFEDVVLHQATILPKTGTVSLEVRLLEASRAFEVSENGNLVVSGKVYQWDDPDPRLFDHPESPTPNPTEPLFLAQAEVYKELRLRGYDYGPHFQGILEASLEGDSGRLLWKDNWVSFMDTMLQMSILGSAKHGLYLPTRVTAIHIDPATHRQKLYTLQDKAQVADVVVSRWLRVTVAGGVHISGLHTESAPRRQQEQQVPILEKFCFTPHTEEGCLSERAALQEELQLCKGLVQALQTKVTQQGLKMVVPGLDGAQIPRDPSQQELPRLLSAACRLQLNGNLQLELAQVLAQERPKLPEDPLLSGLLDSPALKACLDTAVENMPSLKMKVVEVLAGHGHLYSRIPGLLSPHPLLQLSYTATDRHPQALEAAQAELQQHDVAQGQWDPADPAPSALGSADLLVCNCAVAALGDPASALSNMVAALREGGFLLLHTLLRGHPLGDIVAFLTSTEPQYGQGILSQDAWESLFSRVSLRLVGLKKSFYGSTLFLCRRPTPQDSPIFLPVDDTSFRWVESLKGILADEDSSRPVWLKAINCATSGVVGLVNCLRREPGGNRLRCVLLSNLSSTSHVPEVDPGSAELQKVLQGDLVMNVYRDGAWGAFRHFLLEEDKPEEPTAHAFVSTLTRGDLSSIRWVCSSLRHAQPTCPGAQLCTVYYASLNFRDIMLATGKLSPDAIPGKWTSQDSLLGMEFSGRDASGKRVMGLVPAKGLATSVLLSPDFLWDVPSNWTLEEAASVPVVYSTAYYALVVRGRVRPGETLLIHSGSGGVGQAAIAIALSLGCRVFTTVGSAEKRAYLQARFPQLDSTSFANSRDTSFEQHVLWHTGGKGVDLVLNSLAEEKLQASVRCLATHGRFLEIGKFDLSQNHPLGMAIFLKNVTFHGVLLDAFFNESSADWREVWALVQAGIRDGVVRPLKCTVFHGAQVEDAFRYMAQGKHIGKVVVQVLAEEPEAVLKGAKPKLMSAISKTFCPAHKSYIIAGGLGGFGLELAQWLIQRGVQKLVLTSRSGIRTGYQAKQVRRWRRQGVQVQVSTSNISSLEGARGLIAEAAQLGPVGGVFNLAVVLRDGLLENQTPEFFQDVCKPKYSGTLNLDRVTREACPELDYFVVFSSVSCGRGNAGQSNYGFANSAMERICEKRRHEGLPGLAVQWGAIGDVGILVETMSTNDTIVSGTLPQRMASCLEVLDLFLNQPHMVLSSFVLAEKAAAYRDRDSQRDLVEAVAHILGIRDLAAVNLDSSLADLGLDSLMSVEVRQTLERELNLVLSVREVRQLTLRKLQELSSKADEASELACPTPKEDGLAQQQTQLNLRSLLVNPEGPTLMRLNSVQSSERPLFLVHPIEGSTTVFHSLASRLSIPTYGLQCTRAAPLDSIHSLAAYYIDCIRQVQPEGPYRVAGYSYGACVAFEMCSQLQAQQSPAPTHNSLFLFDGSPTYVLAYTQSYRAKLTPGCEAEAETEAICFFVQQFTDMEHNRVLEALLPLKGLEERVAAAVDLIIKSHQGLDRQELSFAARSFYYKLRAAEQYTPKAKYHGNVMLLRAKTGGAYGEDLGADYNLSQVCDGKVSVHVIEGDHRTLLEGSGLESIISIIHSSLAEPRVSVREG
Kind of assay: Fatty Acid Synthase (FASN) inhibition scintillation proximity assay. Conditions: for IC50: read-out: Human FASN pIC50 (converted). In kind it is biochemical. The protocol: In this assay, inhibition of FASN activity is measured using ^3H-acetyl-CoA and malonyl-CoA as substrates. ^3H-Acetyl CoA is converted to ^3H-palmitate through a series of reactions by the FASN protein, which contains 7 functional domains and carries out 7 enzymatic reactions to ultimately produce ^3H-palmitate. The assay principle is based upon the fact that ^3H-acetyl-CoA is hydrophilic and the end product, ^3H-palmitate is hydrophobic.
10 μL assay buffer (100 mM KH2PO4 pH 7.5, 1 mM DTT) (20 μL in blanks) was added to a 384-well white optiplate plate (Perkin Elmer). 0.9 μL test compound (at concentrations of 30 μM, 10 μM, 3 μM, 1 μM, 0.30 μM, 0.10 μM, 0.03 μM and 0.01 μM)/DMSO and 10 μL hFASN enzyme (full length, 300 ng, purified in house) or 10 μL assay buffer was added to the wells. […] The reaction was stopped by adding 20 μL Streptavidin coupled imaging beads (25 mg/ml). After incubation for 30 minutes at room temperature in the dark, the 384 well plate was centrifuged at 1500 rpm for 3 minutes and was measured after at least 24 hrs by the LEADseeker™, measuring emission using a 610±20 nm pass filter.
where mLC and mHC were the means of the low control wells and high control wells on the plate, after manual exclusion of outliers. A plot of Controlmin versus test compound concentration was fitted to a 4-parameter logistic curve using a non-linear least squares regression method.

[1] abbreviates: read-out: Human FASN % inhibition @ 10 μM, 10 μM test compound.

On to `CS(=O)(=O)Nc1cccc(-c2ccc(C3=NC4(CCCC4)C(=O)N3C[C@@H]3CCN(C(=O)C4CC4)C3)cc2)c1` [compound 84, N-[4′-(3-{(3R)-1-(Cyclopropylcarbonyl)pyrrolidin-3-yl]methyl}-4-oxo-1,3-diazaspiro[4.4non-1-en-2-yl)biphenyl-3-yl]methanesulfonamide], for which the IC50 is 1 µM. Besides, the inhibition at 10 µM under setting [1] is 89.2%.
Take `O=C(C1CC1)N1CC[C@@H](CN2C(=O)C3(CCCC3)N=C2c2ccc(-c3ccc(-c4nn[nH]n4)cc3)cc2)C1` [compound 91, 3-{[(3R)-1-(Cycloprropylcarbonyl)pyrrolidin-3-yl]methyl}-2-[4′-(2H-tetrazol-5-yl)biphenyl-4-yl]-1,3-diazaspiro[4.4]non-1-en-4-one]: the IC50 was > 10 µM. Also, under setting [1], the inhibition at 10 µM is 21.3%.
The like results for `NC(=O)CN1CC[C@@H](CN2C(=O)C3(CCN(Cc4ccccc4)CC3)N=C2c2ccc(-c3ccc4occc4c3)cc2)C1` [compound 95, 2-[(3R)-3-({2-[4-(1-Benzofuran-5-yl)phenyl]-8-benzyl-4-oxo-1,3,8-triazaspiro[4.5]dec-1-en-3-yl}methyl)pyrrolidin-1-yl]acetamide] were, in that order, > 10 µM and 24.4%.
Consider `O=C(CN1CC[C@@H](CN2C(=O)C3(CCN(Cc4ccccc4)CC3)N=C2c2ccc(-c3ccc4occc4c3)cc2)C1)C1CC1` [compound 96, 2-[4-(1-Benzofuran-5-yl)phenyl]-8-benzyl-3-{[(3R)-1-(2-cyclopropyl-2-oxoethyl)pyrrolidin-3-yl]methyl}-1,3,8-triazaspiro[4.5]dec-1-en-4-one], for which the IC50 was 5.01 µM. In addition, the inhibition at 10 µM under setting [1] turned out to be 71.2%.
The like results for `Cc1ccc(-c2ccc(C3=NC4(CC4)C(=O)N3CC3CCN(C(=O)C4CC4)CC3)cc2)cc1` [compound 97, 6-{[1-(Cyclopropylcarbonyl)piperidin-4-yl]methyl}-5-(4′-methylbiphenyl-4-yl)-4,6-diazaspiro[2.4]hept-4-en-7-one] were, in that order, 5.62 µM and 58.7%.
For the molecule `COc1ccccc1-c1ccc(C2=NC3(CC3)C(=O)N2CC2CCN(C(=O)C3CC3)CC2)cc1` [compound 98, 6-{[1-(Cyclopropylcarbonyl)piperidin-4-yl]methyl}-5-(2′-methoxybiphenyl-4-yl)-4,6-diazaspiro[2.4]hept-4-en-7-one], the IC50 is > 10 µM. Further, the inhibition at 10 µM under setting [1] came to 35.1%.
For `COc1ccc(-c2ccc(C3=NC4(CC4)C(=O)N3CC3CCN(C(=O)C4CC4)CC3)cc2)cc1` [compound 99], in that order: 4.68 µM and 61.4%.
For `O=C(C1CC1)N1CC[C@@H](CN2C(=O)C3(CC3)N=C2c2ccc(-c3ccc(C(F)(F)F)cc3)cc2)C1` [compound 104, 6-{[(3R)-1-(Cyclopropylcarbonyl)pyrrolidin-3-yl]methyl}-5-[4′-(trifluoromethyl)biphenyl-4-yl]-4,6-diazaspiro[2.4]hept-4-en-7-one], in that order: 3.24 µM and 71.7%.
`O=C(C1CC1)N1CCC(CN2C(=O)C3(CC3)N=C2c2ccc(-c3ccc(C(F)(F)F)cc3)cc2)CC1` [compound 107, 6-{[1-(Cyclopropylcarbonyl)piperidin-4-yl]methyl}-5-[4′-(trifluoromethyl)biphenyl-4-yl]-4,6-diazaspiro[2.4]hept-4-en-7-one]: the IC50 was > 10 µM. Besides, the inhibition at 10 µM under setting [1] was 10.6%.
For `O=C(C1CC1)N1CCC(CN2C(=O)C3(CC3)N=C2c2ccc(-c3cccc(O)c3)cc2)CC1` [compound 108, 6-{[1-(Cyclopropylcarbonyl)piperidin-4-yl]methyl}-5-(3′-hydroxybiphenyl-4-yl)-4,6-diazaspiro[2.4]hept-4-en-7-one], in that order: 1.51 µM and 83.8%.
The like results for `O=C(C1CC1)N1CCC(CN2C(=O)C3(CC3)N=C2c2ccc(-c3ccc(Cl)cc3)cc2)CC1` [compound 109, 5-(4′-Chlorobiphenyl-4-yl)-6-{[1-(cyclopropylcarbonyl)piperidin-4-yl]methyl}-4,6-diazaspiro[2.4]hept-4-en-7-one] were, in that order, 5.13 µM and 62.1%.
On to `O=C(C1CC1)N1CCC(CN2C(=O)C3(CC3)N=C2c2ccc(-c3ccc(F)cc3)cc2)CC1` [compound 110, 6-{[1-(Cyclopropylcarbonyl)piperidin-4-yl]methyl}-5-(4′-fluorobiphenyl-4-yl)-diazaspiro[2.4]hept-4-en-7-one], for which the IC50 is > 10 µM. Further, the inhibition at 10 µM (read-out: Human FASN % inhibition @ 10 μM) is 32.6%.
Regarding `Cc1cccc(-c2ccc(C3=NC4(CC4)C(=O)N3CC3CCN(C(=O)C4CC4)CC3)cc2)c1` [compound 111, 6-{[1-(Cyclopropylcarbonyl)piperidin-4-yl]methyl}-5-(3′-methylbiphenyl-4-yl)-4,6-diazaspiro[2.4]hept-4-en-7-one], the IC50 was 4.37 µM. In addition, the inhibition at 10 µM under setting [1] is 62.2%.
The like results for `N#Cc1cccc(-c2ccc(C3=NC4(CC4)C(=O)N3C[C@@H]3CCN(C(=O)C4CC4)C3)cc2)c1` [compound 123, 4′-(6-{[(3R)-1-(Cyclopropylcarbonyl)pyrrolidin-3-yl]methyl}-7-oxo-4,6-diazaspiro[2.4]hept-4-en-5-yl)biphenyl-3-carbonitrile] were, in that order, 1.26 µM and 81.5%.
`O=C(C1CC1)N1CC[C@@H](CN2C(=O)C3(CC3)N=C2c2ccc(-c3ccc(OC(F)(F)F)cc3)cc2)C1` [compound 125, 6-{[(3R)-1-(Cyclopropylcarbonyl)pyrrolidin-3-yl]methyl}-5-[4′-(trifluoromethoxy)biphenyl-4-yl]-4,6-diazaspiro[2.4]hept-4-en-7-one]: the IC50 is 3.98 µM. Besides, the inhibition at 10 µM under setting [1] was 64.6%.
With `CC(C)C(=O)N1CCC2(CC1)N=C(c1ccc(-c3ccc4occc4c3)cc1)N(CC1CN(C(=O)C3CC3)C1)C2=O` [compound 129, 2-[4-(1-Benzofuran-5-yl)phenyl]-3-{[1-(cyclopropylcarbonyl)azetidin-3-yl]methyl}-8-(2-methylpropanoyl)-1,3,8-triazaspiro[4.5]dec-1-en-4-one], the IC50 was 1.17 µM. The inhibition at 10 µM under setting [1] turned out to be 90.7%.
The like results for `O=C(C1CC1)N1CC(CN2C(=O)C3(CCNCC3)N=C2c2ccc(-c3ccc4occc4c3)cc2)C1` [compound 130, 2-[4-(1-Benzofuran-5-yl)phenyl]-3-{[1-(cyclopropylcarbonyl)azetidin-3-yl]methyl}-1,3,8-triazaspiro[4.5]dec-1-en-4-one] were, in that order, 3.8 µM and 74%.
On to `Cn1ncc2cc(-c3ccc(C4=NC5(CCNCC5)C(=O)N4CC4CN(C(=O)C5CC5)C4)cc3)ccc21` [compound 131, 3-{[1-(Cyclopropylcarbonyl)azetidin-3-yl]methyl}-2-[4-(1-methyl-1H-indazol-5-yl)phenyl]-1,3,8-triazaspiro[4.5]dec-1-en-4-one], for which the IC50 was 8.91 µM. The inhibition at 10 µM under setting [1] was 52.1%.
The like results for `O=C(C1CC1)N1CC(CN2C(=O)C3(CCNCC3)N=C2c2ccc(-c3ccc4cnccc4c3)cc2)C1` [compound 132, 3-{[1-(Cyclopropylcarbonyl)azetidin-3-yl]methyl}-2-(4-isoquinolin-6-ylphenyl)-1,3,8-triazaspiro[4.5]dec-1-en-4-one] were, in that order, 1.7 µM and 83.7%.
